The results in this text go back to patent US20230398130A1, “METHODS AND COMPOSITIONS FOR DIFFERENTIATING STEM CELLS” (Massachusetts Institute of Technology, priority 2020, published 2023).

Test [1] concerns ISC-enriched organoids. Nature of the test: Primary screen, 384-well 2.5-D organoid differentiation (ENR+CD, 6 days): basal lysozyme secretion (LYZ.NS). The class given is cell-based, murine. Particulars: primary screen; for Dose.FC.LYZ.NS (log 2 fold change): vs plate median. From the text:
(§1) High-throughput screening.

Test [2] deals with ISC-enriched organoids. Nature of the test: Primary screen, 384-well 2.5-D organoid differentiation (ENR+CD, 6 days): carbachol-induced lysozyme secretion (LYZ.S). Particulars: primary screen, vs plate median. The format is cell-based, murine.
Source text: as §1

Test [3] has as its system ISC-enriched organoids. Nature of the test: Primary screen, 384-well 2.5-D organoid differentiation (ENR+CD, 6 days, Target Selective Inhibitor Library, vs whole-plate median): ATP (CellTiter-Glo 3D, CTG). Particulars: primary screen; for Dose.FC.CTG (log 2 fold change): vs plate median.

SMILES strings stand for the structures.

On to `O=C(NNc1nc2cc(F)ccc2n2cccc12)c1cnccn1` [SC144], for which the “Z.LYZ.NS (standard z score)” value in test [1] (Dose 0.08 uM) was 0.582; in test [1] (Dose 0.40 uM), −0.112; in test [1] (Dose 2.00 uM), −0.220; in test [1] (Dose 10.00 uM) it was −1.355. Moreover, the “Dose.FC.LYZ.NS (log 2 fold change)” value in test [1] (Dose 0.08 uM) was 0.067; in test [1] (Dose 0.40 uM), −0.013; in test [1] (Dose 2.00 uM), −0.025; in test [1] (Dose 10.00 uM), −0.156. Further, the “Dose.FC.LYZ.S (log 2 fold change)” value is given as 0.098 in test [2] (Dose 0.08 uM), 0.014 in test [2] (Dose 0.40 uM), −0.131 in test [2] (Dose 2.00 uM) and −0.211 in test [2] (Dose 10.00 uM). Moreover, the “Z.CTG (standard z score)” value is 0.381 in test [3] (Dose 0.08 uM), 0.309 in test [3] (Dose 0.40 uM), −0.613 in test [3] (Dose 2.00 uM) and −2.113 in test [3] (Dose 10.00 uM). Besides, the “Dose.FC.CTG (log 2 fold change)” value in test [3] (Dose 0.08 uM) is given as 0.160; in test [3] (Dose 0.40 uM), 0.129; in test [3] (Dose 2.00 uM), −0.257; in test [3] (Dose 10.00 uM) it was −0.885.

With `Cc1cc(Nc2ccc(NC(=O)c3ccc(Nc4ccnc5ccccc45)cc3)cc2)nc(N)n1` [SGI-1027], the “Z.LYZ.NS (standard z score)” value in test [1] (Dose 0.08 uM) is recorded as 0.528; in test [1] (Dose 0.40 uM), 0.735; in test [1] (Dose 2.00 uM), 1.123; in test [1] (Dose 10.00 uM), −0.046. Further, the “Dose.FC.LYZ.NS (log 2 fold change)” value in test [1] (Dose 0.08 uM) is reported as 0.061; in test [1] (Dose 0.40 uM), 0.084; in test [1] (Dose 2.00 uM) it was 0.129; in test [1] (Dose 10.00 uM), −0.005. Besides, the “Dose.FC.LYZ.S (log 2 fold change)” value in test [2] (Dose 0.08 uM) is given as 0.060; in test [2] (Dose 0.40 uM), 0.145; in test [2] (Dose 2.00 uM) it was 0.094; in test [2] (Dose 10.00 uM), 0.018. For the same molecule, the “Z.CTG (standard z score)” value was 0.583 in test [3] (Dose 0.08 uM), 0.712 in test [3] (Dose 0.40 uM), 0.412 in test [3] (Dose 2.00 uM) and 0.125 in test [3] (Dose 10.00 uM). Moreover, the “Dose.FC.CTG (log 2 fold change)” value is 0.244 in test [3] (Dose 0.08 uM), 0.298 in test [3] (Dose 0.40 uM), 0.172 in test [3] (Dose 2.00 uM) and 0.052 in test [3] (Dose 10.00 uM).

Take `CN1CCC(CNc2ccc3ncc(-c4cccc(OC(F)(F)F)c4)n3n2)CC1` [SGI-1776free base]: the “Z.LYZ.NS (standard z score)” value in test [1] (Dose 0.08 uM) is listed as 1.013; in test [1] (Dose 0.40 uM), 0.362; in test [1] (Dose 2.00 uM), 0.108; in test [1] (Dose 10.00 uM), −1.784. For the same molecule, the “Dose.FC.LYZ.NS (log 2 fold change)” value is on record as 0.116 in test [1] (Dose 0.08 uM), 0.042 in test [1] (Dose 0.40 uM), 0.012 in test [1] (Dose 2.00 uM) and −0.205 in test [1] (Dose 10.00 uM). Besides, the “Dose.FC.LYZ.S (log 2 fold change)” value is given as 0.159 in test [2] (Dose 0.08 uM), 0.088 in test [2] (Dose 0.40 uM), 0.011 in test [2] (Dose 2.00 uM) and −0.317 in test [2] (Dose 10.00 uM). The “Z.CTG (standard z score)” value in test [3] (Dose 0.08 uM) is 0.407; in test [3] (Dose 0.40 uM) it was 0.665; in test [3] (Dose 2.00 uM), 0.506; in test [3] (Dose 10.00 uM) it was −2.468. The “Dose.FC.CTG (log 2 fold change)” value in test [3] (Dose 0.08 uM) was 0.170; in test [3] (Dose 0.40 uM), 0.278; in test [3] (Dose 2.00 uM) it was 0.212; in test [3] (Dose 10.00 uM) it was −1.033.

For `Oc1ccc(Nc2nc(-c3ccc(Cl)cc3)cs2)cc1` [SKI II], the “Z.LYZ.NS (standard z score)” value is 0.683 in test [1] (Dose 0.08 uM), 1.906 in test [1] (Dose 0.40 uM), 0.647 in test [1] (Dose 2.00 uM) and −1.362 in test [1] (Dose 10.00 uM). For the same molecule, the “Dose.FC.LYZ.NS (log 2 fold change)” value in test [1] (Dose 0.08 uM) is 0.078; in test [1] (Dose 0.40 uM), 0.219; in test [1] (Dose 2.00 uM), 0.074; in test [1] (Dose 10.00 uM) it was −0.156. Also, the “Dose.FC.LYZ.S (log 2 fold change)” value in test [2] (Dose 0.08 uM) is recorded as 0.090; in test [2] (Dose 0.40 uM) it was 0.123; in test [2] (Dose 2.00 uM), 0.061; in test [2] (Dose 10.00 uM), −0.191. Also, the “Z.CTG (standard z score)” value in test [3] (Dose 0.08 uM) was 0.699; in test [3] (Dose 0.40 uM), 0.531; in test [3] (Dose 2.00 uM), 0.473; in test [3] (Dose 10.00 uM), −0.802. Moreover, the “Dose.FC.CTG (log 2 fold change)” value is recorded as 0.293 in test [3] (Dose 0.08 uM), 0.222 in test [3] (Dose 0.40 uM), 0.198 in test [3] (Dose 2.00 uM) and −0.336 in test [3] (Dose 10.00 uM).

For the molecule `O=C1NC(=O)/C(=C/c2cccc(C(F)(F)F)c2)S1` [SMI-4a], the “Z.LYZ.NS (standard z score)” value is given as 0.188 in test [1] (Dose 0.08 uM), −0.524 in test [1] (Dose 0.40 uM), 0.283 in test [1] (Dose 2.00 uM) and −0.643 in test [1] (Dose 10.00 uM). Moreover, the “Dose.FC.LYZ.NS (log 2 fold change)” value is 0.022 in test [1] (Dose 0.08 uM), −0.060 in test [1] (Dose 0.40 uM), 0.032 in test [1] (Dose 2.00 uM) and −0.074 in test [1] (Dose 10.00 uM). The “Dose.FC.LYZ.S (log 2 fold change)” value in test [2] (Dose 0.08 uM) is 0.036; in test [2] (Dose 0.40 uM), −0.063; in test [2] (Dose 2.00 uM), −0.042; in test [2] (Dose 10.00 uM), −0.134. Moreover, the “Z.CTG (standard z score)” value in test [3] (Dose 0.08 uM) was −0.366; in test [3] (Dose 0.40 uM), −0.758; in test [3] (Dose 2.00 uM), −0.793; in test [3] (Dose 10.00 uM) it was −0.781. The “Dose.FC.CTG (log 2 fold change)” value in test [3] (Dose 0.08 uM) is reported as −0.153; in test [3] (Dose 0.40 uM) it was −0.317; in test [3] (Dose 2.00 uM) it was −0.332; in test [3] (Dose 10.00 uM) it was −0.327.

Consider `CC(C)(C)c1cnc(CSc2cnc(NC(=O)C3CCNCC3)s2)o1` [SNS-032 (BMS-387032)], for which the “Z.LYZ.NS (standard z score)” value in test [1] (Dose 0.08 uM) is on record as 0.428; in test [1] (Dose 0.40 uM) it was −1.241; in test [1] (Dose 2.00 uM), −2.399; in test [1] (Dose 10.00 uM), −2.214. Further, the “Dose.FC.LYZ.NS (log 2 fold change)” value in test [1] (Dose 0.08 uM) is 0.049; in test [1] (Dose 0.40 uM), −0.143; in test [1] (Dose 2.00 uM), −0.276; in test [1] (Dose 10.00 uM), −0.254. Also, the “Dose.FC.LYZ.S (log 2 fold change)” value in test [2] (Dose 0.08 uM) is on record as 0.070; in test [2] (Dose 0.40 uM) it was −0.206; in test [2] (Dose 2.00 uM), −0.301; in test [2] (Dose 10.00 uM), −0.361. Besides, the “Z.CTG (standard z score)” value in test [3] (Dose 0.08 uM) is reported as −0.180; in test [3] (Dose 0.40 uM) it was −0.198; in test [3] (Dose 2.00 uM), −2.186; in test [3] (Dose 10.00 uM), −2.411. Further, the “Dose.FC.CTG (log 2 fold change)” value in test [3] (Dose 0.08 uM) is given as −0.075; in test [3] (Dose 0.40 uM), −0.083; in test [3] (Dose 2.00 uM) it was −0.915; in test [3] (Dose 10.00 uM), −1.009.

Turning to `O=C(Nc1cc(C(F)(F)F)ccc1N1CCCCC1)c1ccncc1` [SRPIN340], the “Z.LYZ.NS (standard z score)” value in test [1] (Dose 0.08 uM) is listed as 1.004; in test [1] (Dose 0.40 uM) it was 0.348; in test [1] (Dose 2.00 uM), 0.846; in test [1] (Dose 10.00 uM), 0.192. Also, the “Dose.FC.LYZ.NS (log 2 fold change)” value is 0.115 in test [1] (Dose 0.08 uM), 0.040 in test [1] (Dose 0.40 uM), 0.097 in test [1] (Dose 2.00 uM) and 0.022 in test [1] (Dose 10.00 uM). In addition, the “Dose.FC.LYZ.S (log 2 fold change)” value in test [2] (Dose 0.08 uM) stood at 0.112; in test [2] (Dose 0.40 uM), 0.098; in test [2] (Dose 2.00 uM), 0.100; in test [2] (Dose 10.00 uM), 0.078. In addition, the “Z.CTG (standard z score)” value in test [3] (Dose 0.08 uM) came out at 1.005; in test [3] (Dose 0.40 uM) it was 1.063; in test [3] (Dose 2.00 uM), 1.083; in test [3] (Dose 10.00 uM), 1.115. Moreover, the “Dose.FC.CTG (log 2 fold change)” value in test [3] (Dose 0.08 uM) is listed as 0.421; in test [3] (Dose 0.40 uM), 0.445; in test [3] (Dose 2.00 uM) it was 0.453; in test [3] (Dose 10.00 uM), 0.467.

Turning to `O=C(Nc1ccccc1-c1cn2c(CN3CCNCC3)csc2n1)c1cnc2ccccc2n1` [SRT1720], the “Z.LYZ.NS (standard z score)” value in test [1] (Dose 0.08 uM) was 1.495; in test [1] (Dose 0.40 uM) it was 0.972; in test [1] (Dose 2.00 uM), 0.613; in test [1] (Dose 10.00 uM) it was −0.906. The “Dose.FC.LYZ.NS (log 2 fold change)” value is on record as 0.172 in test [1] (Dose 0.08 uM), 0.112 in test [1] (Dose 0.40 uM), 0.070 in test [1] (Dose 2.00 uM) and −0.104 in test [1] (Dose 10.00 uM). In addition, the “Dose.FC.LYZ.S (log 2 fold change)” value in test [2] (Dose 0.08 uM) is given as 0.190; in test [2] (Dose 0.40 uM), 0.099; in test [2] (Dose 2.00 uM) it was 0.051; in test [2] (Dose 10.00 uM) it was −0.193. For the same molecule, the “Z.CTG (standard z score)” value in test [3] (Dose 0.08 uM) was 1.264; in test [3] (Dose 0.40 uM), 0.940; in test [3] (Dose 2.00 uM) it was 0.810; in test [3] (Dose 10.00 uM) it was −2.427. In addition, the “Dose.FC.CTG (log 2 fold change)” value is on record as 0.529 in test [3] (Dose 0.08 uM), 0.394 in test [3] (Dose 0.40 uM), 0.339 in test [3] (Dose 2.00 uM) and −1.016 in test [3] (Dose 10.00 uM).
